# Values quoted from earlier work, collected in patent publication US20100227830A1, “USE OF ESCIN” (MARINOMED BIOTECHNOLOGIE GMBH, priority 2006, published 2010).
# Tested on: nuclear factor-KB (NF-κB)
# Details: after traumatic brain injury in rats
substance,measurement,value
β-escin,NF-κB expression level in tissue,significant reduction of NF-κB expression level
